# In ChEMBL document CHEMBL2449286, “Structure-activity data for a series of P-glycoprotein inhibitors (Supplementary Data to CHEMBL1142990)”:
# Target: ATP-dependent translocase ABCB1 (Homo sapiens, UniProt P08183)
# Sequence (P08183 whole entry): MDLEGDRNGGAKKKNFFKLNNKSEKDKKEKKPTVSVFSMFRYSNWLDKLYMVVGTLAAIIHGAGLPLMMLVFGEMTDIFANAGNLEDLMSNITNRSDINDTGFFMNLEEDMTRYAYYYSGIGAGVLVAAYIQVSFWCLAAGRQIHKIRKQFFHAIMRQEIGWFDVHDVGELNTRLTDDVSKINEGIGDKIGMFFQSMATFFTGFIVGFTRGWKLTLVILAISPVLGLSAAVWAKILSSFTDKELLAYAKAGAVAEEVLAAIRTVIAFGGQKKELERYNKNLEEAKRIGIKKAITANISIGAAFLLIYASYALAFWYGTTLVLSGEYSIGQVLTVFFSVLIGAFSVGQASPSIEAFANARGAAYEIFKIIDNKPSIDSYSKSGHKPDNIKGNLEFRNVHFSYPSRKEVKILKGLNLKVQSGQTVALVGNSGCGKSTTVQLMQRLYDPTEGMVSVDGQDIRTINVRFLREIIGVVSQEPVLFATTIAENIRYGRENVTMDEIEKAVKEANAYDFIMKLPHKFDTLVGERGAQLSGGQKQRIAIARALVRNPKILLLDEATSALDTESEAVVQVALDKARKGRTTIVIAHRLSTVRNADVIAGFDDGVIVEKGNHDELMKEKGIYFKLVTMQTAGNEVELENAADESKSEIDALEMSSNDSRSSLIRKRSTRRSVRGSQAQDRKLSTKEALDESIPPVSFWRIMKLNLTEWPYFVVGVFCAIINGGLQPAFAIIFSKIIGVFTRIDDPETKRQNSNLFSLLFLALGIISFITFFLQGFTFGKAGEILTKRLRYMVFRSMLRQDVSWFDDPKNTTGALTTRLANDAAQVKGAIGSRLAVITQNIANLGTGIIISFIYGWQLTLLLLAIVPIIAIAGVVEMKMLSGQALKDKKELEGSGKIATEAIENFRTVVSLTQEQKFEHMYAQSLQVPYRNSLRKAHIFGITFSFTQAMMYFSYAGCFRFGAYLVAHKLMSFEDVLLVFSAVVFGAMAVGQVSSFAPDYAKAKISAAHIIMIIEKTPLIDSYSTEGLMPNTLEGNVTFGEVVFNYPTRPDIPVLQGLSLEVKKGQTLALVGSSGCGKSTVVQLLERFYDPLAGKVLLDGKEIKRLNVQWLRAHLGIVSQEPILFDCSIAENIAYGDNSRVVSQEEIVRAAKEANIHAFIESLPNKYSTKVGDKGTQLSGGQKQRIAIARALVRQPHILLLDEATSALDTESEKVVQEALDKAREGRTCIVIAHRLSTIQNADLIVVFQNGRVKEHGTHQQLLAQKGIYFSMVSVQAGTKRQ
row,Compound,EC50 [µM]
1,O=C(CCc1ccccc1)c1ccccc1OC[C@H](O)CN1CCC(Cc2ccccc2)CC1,0.257
2,O[C@H](COc1ccccc1[C@@H](O)CCc1ccccc1)CN1CCCCC1,1.7
3,O[C@@H](COc1ccccc1[C@@H](O)CCc1ccccc1)CN1CCCCC1,0.871
4,O[C@H](COc1ccccc1[C@H](O)CCc1ccccc1)CN1CCCCC1,1.51
5,O[C@@H](COc1ccccc1[C@H](O)CCc1ccccc1)CN1CCCCC1,0.851
6,OC(CN1CCCCC1)C1Oc2ccccc2C1CCc1ccccc1 (centres undefined),0.646
7,CC(C)[C@@H](CCl)N(C)[C@@H]1C2C=C(C#N)C=CC2OC(C)(C)[C@H]1O (some centres undefined),2.24
8,O=C(CCc1cccc2ccccc12)c1cccc(OCC(O)CN2CCN(c3ccc(F)cc3)CC2)c1 (centres undefined),0.158
9,Cc1ccccc1N1CCN(CC(O)COc2cccc(C(=O)CCc3cccc4ccccc34)c2)CC1 (centres undefined),0.0708
10,CC1(C)Oc2ccc(C#N)cc2C(NCc2ccccc2)C1O (centres undefined),75.9
11,CC1(C)Oc2ccc(C#N)cc2[C@@H](NCc2ccccc2)[C@@H]1O,58.9
12,CC(C)[C@@H](N[C@H]1c2ccccc2OC(C)(C)[C@@H]1O)C(=O)OC(C)(C)C,1.35
13,CC(C)[C@@H](C(=O)OC(C)(C)C)N(C)[C@@H]1c2cc(C#N)ccc2OC(C)(C)[C@H]1O,0.955
14,CC(C)[C@@H](C(=O)OC(C)(C)C)N(C)[C@H]1c2cc(C#N)ccc2OC(C)(C)[C@@H]1O,1.35
15,CC(C)[C@H](C(=O)OC(C)(C)C)N(C)[C@@H]1c2cc(C#N)ccc2OC(C)(C)[C@H]1O,1
16,CC(C)(C)OC(=O)C(Cc1ccccc1)N[C@H]1c2cc(C#N)ccc2OC(C)(C)[C@@H]1O (some centres undefined),0.776
17,CC(C)(C)OC(=O)C(Cc1ccccc1)N[C@@H]1c2cc(C#N)ccc2OC(C)(C)[C@H]1O (some centres undefined),0.55
18,CC(C)[C@@H](CCl)N(C)[C@@H]1c2cc(C#N)ccc2OC(C)(C)[C@H]1O,35.5
19,CC(C)[C@@H](CCl)N(C)[C@H]1c2cc(C#N)ccc2OC(C)(C)[C@@H]1O,44.7
20,CCN(CC)C[C@@H](O)COc1ccccc1C(=O)CCc1ccccc1,0.912
21,O=C(CCc1ccccc1)c1ccccc1OC[C@H](O)CN1CCCCC1,0.603

row,Compound,EC50 [µM]
1,CC(C)N(C[C@@H](O)COc1ccccc1C(=O)CCc1ccccc1)C(C)C,0.38
2,CCC(=O)c1ccccc1OC[C@H](O)CN1CCCCC1,14.5
3,CC(=O)c1ccccc1OC[C@H](O)CN1CCCCC1,31.6
4,O=C(CCc1ccccc1)c1ccccc1OC[C@H](O)CN1CCN(c2ccccc2)CC1,0.617
5,COc1ccccc1N1CCN(C[C@@H](O)COc2ccccc2C(=O)CCc2ccccc2)CC1,0.229
6,COc1cccc(N2CCN(C[C@@H](O)COc3ccccc3C(=O)CCc3ccccc3)CC2)c1,0.676
7,COc1ccc(N2CCN(C[C@@H](O)COc3ccccc3C(=O)CCc3ccccc3)CC2)cc1,0.257
8,Cc1ccccc1N1CCN(C[C@@H](O)COc2ccccc2C(=O)CCc2ccccc2)CC1,0.0269
9,O=C(CCc1ccccc1)c1ccccc1OC[C@H](O)CN1CCN(Cc2ccccc2)CC1,0.661
10,O=C(CCc1ccccc1)c1ccccc1OC[C@H](O)CN1CCN(c2ccc(F)cc2)CC1,0.0708
11,CCC(=O)c1ccccc1OC[C@H](O)CN1CCOCC1,209
12,CN(C)C[C@@H](O)COc1ccccc1C(=O)CCc1ccccc1,2.45
13,CC(=O)c1ccccc1OC[C@H](O)CN1CCOCC1,67.6
14,CCCN(C)C[C@@H](O)COc1ccccc1C(=O)CCc1ccccc1,0.417
15,CCN(CC)C[C@@H](O)COc1ccccc1C(=O)c1ccccc1,2.34
16,O=C(/C=C/c1ccccc1)c1ccccc1OC[C@H](O)CN1CCCCC1,0.316
17,O=C(CCc1ccccc1)c1ccccc1OC[C@H](O)CN1CCOCC1,3.63
18,O=C(CCc1ccccc1)c1ccccc1OC[C@H](O)CN1CCC(O)(c2ccccc2)CC1,0.0575
19,O=C(CCc1ccccc1)c1ccc(OC[C@H](O)CN2CCCCC2)cc1,0.977
20,CO[C@H](CCc1ccccc1)c1ccccc1OC[C@H](O)CN1CCCCC1,0.174
21,CCCNC[C@@H](O)c1oc2ccccc2c1CC,11.5

row,Compound,EC50 [µM]
1,COc1ccccc1N1CCN(C[C@@H](O)c2oc3ccccc3c2CCc2ccccc2)CC1,0.178
2,CCCNC[C@@H](O)COc1ccc(O)cc1C(=O)CCc1ccccc1,3.02
3,O=C(CCc1ccccc1)c1ccc(OC[C@H](O)CN2CCN(c3ccc(F)cc3)CC2)cc1,2.51
4,O=C(CCc1ccccc1)c1cccc(OC[C@H](O)CN2CCCCC2)c1,0.427
5,O=C(CCc1ccccc1)c1ccc(OC[C@H](O)CN2CCOCC2)cc1,6.92
6,O[C@@H](COc1ccccc1[C@H](O)CCc1ccccc1)CN1CCN(c2ccc(F)cc2)CC1,0.676
7,CO[C@H](CCc1ccccc1)c1ccccc1OC[C@H](O)CN1CCN(c2ccc(F)cc2)CC1,0.224
8,O=C(CCc1ccccc1)c1cccc(OC[C@H](O)CN2CCN(c3ccc(F)cc3)CC2)c1,1.12
9,CC(C)N(C[C@@H](O)COc1ccc(C(=O)CCc2ccccc2)cc1)C(C)C,0.912
10,CC(C)N(C[C@@H](O)COc1ccccc1[C@H](O)CCc1ccccc1)C(C)C,1.74
11,CO[C@H](CCc1ccccc1)c1ccccc1OC[C@H](O)CN(C(C)C)C(C)C,0.661
12,O=C(CCc1cccc2ccccc12)c1ccccc1OC[C@H](O)CN1CCCCC1,0.174
13,O=C(CCc1ccccc1)c1ccccc1OC[C@H](O)CNCC(c1ccccc1)c1ccccc1,0.794
14,O=C(CCc1ccccc1)c1ccccc1OC[C@H](O)CNC(c1ccccc1)c1ccccc1,10.5
15,O=C(CCc1cccc2ccccc12)c1ccccc1OC[C@H](O)CNCCC(c1ccccc1)c1ccccc1,0.724
16,CO[C@H](CCc1ccccc1)c1ccccc1OC[C@H](O)CNCCC(c1ccccc1)c1ccccc1,0.759
17,O[C@@H](COc1ccccc1[C@H](O)CCc1ccccc1)CN1CCOCC1,9.55
18,CO[C@H](CCc1ccccc1)c1ccccc1OC[C@H](O)CN1CCOCC1,1.82
19,CC1(C)Oc2ccc(C#N)cc2[C@H](NCc2ccccc2)[C@H]1O,35.5

# More lines, now with the values ahead:
row,EC50 [µM],Compound
1,776,CNC1c2cc(C#N)ccc2OC(C)(C)C1O (centres undefined)
2,1700,CN[C@@H]1c2cc(C#N)ccc2OC(C)(C)[C@H]1O
3,4.68,CC(C)[C@@H](N[C@@H]1c2cc(C#N)ccc2OC(C)(C)[C@H]1O)C(=O)OC(C)(C)C
4,29.5,CC(NC1c2cc(C#N)ccc2OC(C)(C)C1O)C(=O)OC(C)(C)C (centres undefined)
5,14.5,C[C@H](N[C@H]1c2cc(C#N)ccc2OC(C)(C)[C@@H]1O)C(=O)OC(C)(C)C
6,3.72,C[C@@H](C(=O)OC(C)(C)C)N(C)[C@H]1c2cc(C#N)ccc2OC(C)(C)[C@@H]1O
7,3.98,C[C@@H](C(=O)OC(C)(C)C)N(C)[C@@H]1c2cc(C#N)ccc2OC(C)(C)[C@H]1O
8,15.5,CC(C)[C@@H]1N[C@@H]2c3cc(C#N)ccc3OC(C)(C)[C@H]2OC1=O
9,58.9,CC(C)[C@@H]1N[C@H]2c3cc(C#N)ccc3OC(C)(C)[C@@H]2OC1=O
10,9.55,CC(C)[C@H]1N[C@H]2c3cc(C#N)ccc3OC(C)(C)[C@@H]2OC1=O
11,77.6,C[C@@H]1N[C@H]2c3cc(C#N)ccc3OC(C)(C)[C@@H]2OC1=O
12,28.8,C[C@H]1C(=O)O[C@@H]2[C@H](c3cc(C#N)ccc3OC2(C)C)N1C
13,1230,C[C@@H]1N[C@@H]2c3cc(C#N)ccc3OC(C)(C)[C@H]2OC1=O
14,47.9,C[C@H]1C(=O)O[C@H]2[C@@H](c3cc(C#N)ccc3OC2(C)C)N1C
15,47.9,CC(C)[C@H]1C(=O)O[C@H]2[C@@H](c3cc(C#N)ccc3OC2(C)C)N1C
16,79.4,CC(C)[C@@H]1C(=O)O[C@H]2[C@@H](c3cc(C#N)ccc3OC2(C)C)N1C
17,27.5,CC(C)[C@@H]1C(=O)O[C@@H]2[C@H](c3cc(C#N)ccc3OC2(C)C)N1C
18,16.6,CC(C)[C@H]1C(=O)O[C@@H]2[C@H](c3cc(C#N)ccc3OC2(C)C)N1C
19,257,CC1(C)Oc2ccc(C#N)cc2[C@@H]2NC(Cc3ccccc3)C(=O)O[C@H]21 (some centres undefined)
20,2.69,CC1(C)Oc2ccc(C#N)cc2[C@H]2N[C@@H](Cc3ccccc3)C(=O)O[C@@H]21
21,102,CC(C)[C@@H](CO)N[C@H]1c2cc(C#N)ccc2OC(C)(C)[C@@H]1O
22,53.7,CC(C)[C@@H](CO)N[C@@H]1c2cc(C#N)ccc2OC(C)(C)[C@H]1O
23,5.5,CC(C)[C@@H](CO)N(C)[C@@H]1c2cc(C#N)ccc2OC(C)(C)[C@H]1O
24,6.92,CC(C)C(CO)N(C)[C@H]1c2cc(C#N)ccc2OC(C)(C)[C@@H]1O (some centres undefined)
25,2.69,CC(C)[C@H](N[C@H]1c2cc(C#N)ccc2OC(C)(C)[C@@H]1O)C(=O)O
26,4.79,CC(C)[C@H](N[C@@H]1c2cc(C#N)ccc2OC(C)(C)[C@H]1O)C(=O)O
27,45.7,C[C@H](N[C@@H]1c2cc(C#N)ccc2OC(C)(C)[C@H]1O)C(=O)OC(C)(C)C
28,309,CN[C@H]1c2cc(C#N)ccc2OC(C)(C)[C@@H]1O
